Results as given in US20210299064A1, “METHOD OF TREATING PATIENTS WITH LENNOX-GASTAUT SYNDROME” (ZOGENIX INTERNATIONAL LIMITED, priority 2020, published 2021).
Structures can show the parent of a compound that is named as a salt. Where two headings read alike, the source gives them in different places.

Assays:
[1] = system: children and adults with Lennox-Gastaut syndrome (LGS); assay: Randomized, double-blind, placebo-controlled trial of adjunctive fenfluramine oral solution: seizure frequency from caregiver diary; assay type: in vivo, human; details: for median reduction in monthly drop seizures: 2 week titration plus 12 week maintenance, placebo 7.8% (7.6% elsewhere in the source); for reduction from baseline of generalized tonic-clonic (GTC) seizures: placebo negative 3.7%, p less than 0.001; for reduction from baseline of tonic-atonic seizures: placebo 6.8%, p 0.0455; for proportion of subjects with a 25% or more reduction in monthly drop seizures: titration plus maintenance (week 0-14), placebo 31%, p 0.007
Procedure: A randomized, double-blind, placebo-controlled trial was conducted to assess the effect of administering fenfluramine hydrochloride as an adjunctive therapy as an oral solution to children and adults with Lennox-Gastaut syndrome (LGS). The study assessed the effect of such administration on seizures experienced by the subjects.
The fenfluramine hydrochloride was supplied as an oral solution in concentrations of 1.25, 2.5, and 5 mg/mL. Subjects were randomized to receive 1 of 2 doses of fenfluramine hydrochloride (0.2 mg/kg/day, 0.8 mg/kg/day; maximum dose: 30 mg/day) or placebo. Study medication were administered twice a day (BID) in equally divided doses. (Note that subjects taking concomitant stiripentol [STP] were randomized to 0.5 mg/kg/day, maximum dose 20 mg/day, or equivalent volume of placebo. Subjects randomized to 0.5 mg/kg/day were included in analyses with the subjects randomized to 0.8 mg/kg/day not taking STP.)
Seizures that result in a drop are defined as seizures involving the entire body, trunk, or head that led to a fall, injury, slumping in a chair, or the subject's head hitting a surface or that could have led to a fall or injury, depending on the patient's position at the time of the seizure.
The cohort included 263 randomized subjects from the United States, Canada, Europe, and Australia. 87 were randomized into 0.7 mg/kg/day of fenfluramine hydrochloride, 89 were randomized into 0.2 mg/kg/day of fenfluramine hydrochloride, and 87 were randomized into a placebo.
The administration was conducted for 20 weeks. There was a 4-week baseline, a 2-week titration, a 12-week maintenance, and a 2-week taper or transition period.
The 4-week Baseline Period consisted of the establishment of initial eligibility during a screening visit to include an assessment of cardiac parameters (ECG and ECHO), followed by an observation period where subjects were assessed for baseline seizure frequency based on recordings of daily seizure activity entered into a diary. Upon completion of the Baseline Period, subjects who qualified for the study were randomized (1:1:1) in a double-blind manner to receive 1 of 2 doses of fenfluramine hydrochloride (0.2 mg/kg/day, […]; maximum dose: 30 mg/day [or 0.5 mg/kg/day, maximum 20 mg/day, for subjects taking concomitant STP]) or placebo. Randomization was stratified by weight (<37.5 kilograms [kg], ≥37.5 kg) to ensure balance across treatment arms, and at least 25% of subjects will be in each weight group. All subjects were titrated to their blinded randomized dose over a 2-week Titration Period. Following titration, subjects continued treatment at their randomly assigned dose over a 12-week Maintenance Period. Total treatment time from the beginning of the Titration Period through the end of the Maintenance Period is 14 weeks. Subjects had ECG and ECHO assessments at weeks 6 and 14 during the Maintenance Period. At the end of the Maintenance Period (or early discontinuation), all subjects underwent a blinded 2-week taper or transition period (Post-Dosing Follow-Up) depending on whether they exit the study or are enrolled in Part 2, the long-term open-label extension, respectively.
Change in seizure frequency was assessed as the drops between baseline and the combined Titration and Maintenance Periods (T+M). Also assessed was the proportion of subjects who achieve a ≥50% reduction from baseline in the frequency of seizures that result in drops. Also assessed was changes in the Clinical Global Impression—Improvement rating, as assessed by the Principal Investigator.
Primary Efficacy Analysis: The primary efficacy endpoint for Part 1 is the percent change in frequency of seizures that result in drops (DSF: drop seizure frequency) per 28 days between the T+M and Baseline periods in Cohort A. The DSF will be calculated from all available data collected during the Baseline and treatment periods without imputation. […]

[2] = system: children with refractory epilepsy; details: 0.5 to 1 mg/kg/day; cited from earlier work
[3] = system: child suffering pattern sensitivity-induced seizures; details: one child, resistant to anticonvulsive treatment; cited from earlier work
[4] = system: children and adults with Lennox-Gastaut syndrome (LGS); assay: Same trial: safety (adverse events, ECG, ECHO); assay type: in vivo, human
[5] = system: children and adults with Lennox-Gastaut syndrome (LGS); assay: Same trial: Clinical Global Impression-Improvement (CGI-I) rating by the Principal Investigator; assay type: in vivo, human; details: 0.7 mg/kg/day; placebo 6.3%; p 0.0007
Excerpt: The diagnosing can also involve a clinician's impression of symptoms. As used herein, the term “clinician” includes not only medical and psychological professions such as physicians, psychologists, psychiatrists, and nurses, but also non-professionals who observe the patient, such as a family member who resides with the patient. In some cases, the clinician is a medical or psychological professional. […] Instead, the “impression of symptoms” includes, for example, the clinician's subjective assessment of whether the overall condition of the patient has improved, worsened, or remained constant. In some cases the clinician's impression of symptoms is collected using a Clinical Global Impression (CGI) rating scale, which can include the section about severity of illness (CGI-S), global improvement (CGI-I), and efficacy index (CGI-E). […] By comparing the numerical responses over time, an assessment of the effect of the administering can be determined.
Change in seizure frequency was assessed as the drops between baseline and the combined Titration and Maintenance Periods (T+M). Also assessed was the proportion of subjects who achieve a ≥50% reduction from baseline in the frequency of seizures that result in drops. Also assessed was changes in the Clinical Global Impression—Improvement rating, as assessed by the Principal Investigator. […]

[6] = system: self-induced photosensitive seizures; details: four cases; cited from earlier work
[7] = system: LGS patients; details: cited from earlier work; for reduction in seizures associated with drops: 20 mg/kg/day
[8] = 0.7 mg/kg/day, listed as Fenfluramine

CCNC(C)Cc1cccc(C(F)(F)F)c1 (racemic) [fenfluramine, (RS)—N-ethyl-1-[3-(trifluoromethyl)phenyl]propan-2-amine]
median reduction in monthly drop seizures ([1]; 0.2 mg/kg/day, p 0.0915): 14.2% | reduction from baseline of generalized tonic-clonic (GTC) seizures ([1]; 0.2 mg/kg/day): 58.2% | reduction from baseline of generalized tonic-clonic (GTC) seizures ([1]; 0.2 mg/kg/day, listed as Fenfluramine): 58% | median reduction in monthly drop seizures ([1]; 0.7 mg/kg/day, p 0.0012): 26.5% | Hodges-Lehmann EMD (estimated median difference) from placebo in frequency of seizures associated with a drop ([1]; 0.7 mg/kg/day, p 0.0013): 19.9% | reduction from baseline of tonic-atonic seizures ([1]; 0.7 mg/kg/day): 46.7% | reduction from baseline of tonic-atonic seizures [1, 8]: 47% | reduction from baseline of tonic seizures ([1]; 0.7 mg/kg/day, placebo 13.3%, p 0.0601): 31.3% | reduction from baseline of generalized tonic-clonic (GTC) seizures ([1]; 0.7 mg/kg/day): 45.7% | reduction from baseline of generalized tonic-clonic (GTC) seizures [1, 8]: 46% | proportion of subjects with a 25% or more reduction in monthly drop seizures ([1]; 0.7 mg/kg/day): 51.7% | effect on number of seizures [2]: reduction in the number of seizures | effect on self-induced pattern sensitivity-induced seizures [3]: successfully terminated these self-induced seizures | subjects with at least one serious treatment emergent adverse event (SAE) ([4]; 0.7 mg/kg/day, placebo 4.6%): 11.7% | tolerability ([4]; both doses, 14 weeks of treatment): generally well tolerated | cases of valvular heart disease or pulmonary arterial hypertension ([4]; both doses, ECHO monitoring): No cases of valvular heart disease or pulmonary arterial hypertension were observed | proportion of patients much or very much improved, CGI-I Investigator Rating [5]: 26.3% | response of self-induced photosensitive seizures [6]: responded to treatment

O=C(c1cccnc1-c1ccncc1)N1CCC(O)(Cc2ccccc2)CC1 [Soticlestat]
reduction in drop seizures ([7]; Takeda Pharmaceuticals 2020, not statistically significant): 14.8%

C=C(C)[C@@H]1CCC(C)=C[C@H]1c1c(O)cc(CCCCC)cc1O [cannabidiol]
reduction in seizures associated with drops ([7]; Devinksy 2018, p 0.005): 21.6% | reduction in seizures associated with drops ([7]; Thiele 2018, p 0.0135): 17.2%

CCNC(C)Cc1cccc(C(F)(F)F)c1 (stereo not shown) [fenfluramine HCl, fenfluramine hydrochloride]
median reduction in monthly drop seizures ([1]; 0.2 mg/kg/day, p 0.0915): 13.2% | median reduction in monthly drop seizures ([1]; 0.7 mg/kg/day, p 0.0012): 26.5% | proportion of subjects with a 25% or more reduction in monthly drop seizures ([1]; 0.7 mg/kg/day): 51.7% | proportion of patients much or very much improved, CGI-I Investigator Rating [5]: 26.3%
